According to patent publication US11427549B2, “Pyrimidinyloxy benzo-fused compounds as herbicides” (FMC Corporation, priority 2017, dated 2022):

Legend:
[1] = system: foxtail, giant (giant foxtail, Setaria faberii); assay: Test A preemergence, foxtail, giant; type: in vivo; conditions: Setaria faberi, pre-emergence, 240 h, 0 to 100 scale (0 no effect, 100 complete control), read-out: Plant response rating, Foxtail, Giant; for pest or weed control at 31 g/ha: 31 g ai/ha; for pest or weed control at 125 g/ha: 125 g ai/ha
[2] = system: foxtail, giant (giant foxtail, Setaria faberii); assay: Test A postemergence, foxtail, giant; type: in vivo; conditions: Setaria faberi, post-emergence, 240 h, 0 to 100 scale (0 no effect, 100 complete control), read-out: Plant response rating, Foxtail, Giant; for pest or weed control at 31 g/ha: 31 g ai/ha; for pest or weed control at 125 g/ha: 125 g ai/ha
[3] = system: foxtail, green (green foxtail, Setaria viridis); assay: Test A preemergence, foxtail, green; type: in vivo; conditions: Setaria, pre-emergence, 240 h, 0 to 100 scale (0 no effect, 100 complete control), read-out: Plant response rating, Foxtail, Green; for pest or weed control at 31 g/ha: 31 g ai/ha; for pest or weed control at 125 g/ha: 125 g ai/ha
From the text: Seeds of plant species selected from barnyardgrass (Echinochloa crus-galli), kochia (Kochia scoparia), ragweed (common ragweed, Ambrosia elatior), ryegrass, Italian (Italian ryegrass, Lolium multiflorum), foxtail, giant (giant foxtail, Setaria faberii), foxtail, green (green foxtail, Setaria viridis) and pigweed (Amaranthus retroflexus) were planted into a blend of loam soil and sand and treated preemergence with a directed soil spray using test chemicals formulated in a non-phytotoxic solvent mixture which included a surfactant.
At the same time, plants selected from these weed species and also wheat (Triticum aestivum), corn (Zea mays), blackgrass (Alopecurus myosuroides), and galium (catchweed bedstraw, Galium aparine) were planted in pots containing the same blend of loam soil and sand and treated with postemergence applications of test chemicals formulated in the same manner. Plants ranged in height from 2 to 10 cm and were in the one- to two-leaf stage for the postemergence treatment. Treated plants and untreated controls were maintained in a greenhouse for approximately 10 days, after which time all treated plants were compared to untreated controls and visually evaluated for injury. […] A dash (-) response means no test result.

SMILES | pest or weed control at 31 g/ha [1] [%] | pest or weed control at 125 g/ha [1] [%] | melting point [°C] | pest or weed control at 31 g/ha [2] [%] | pest or weed control at 125 g/ha [2] [%] | pest or weed control at 31 g/ha [3] [%] | pest or weed control at 125 g/ha [3] [%]
O=C1Cc2cccc(Oc3ncc(Cl)cn3)c2C(CCC(F)(F)F)O1 (stereo not shown) [Compound 28, 8-[(5-Chloro-2-pyrimidinyl)oxy]-1,4-dihydro-1-(3,3,3-trifluoropropyl)-3H-2-benzopyran-3-one] | 10 | 100 | 122 to 126 | 10 | 20 | – | –
O=C1OC(CCC(F)(F)F)Cc2c(Oc3ncc(Cl)cn3)cccc21 (stereo not shown) [Compound 23, 5-[(5-Chloro-2-pyrimidinyl)oxy]-3,4-dihydro-3-(3,3,3-trifluoropropyl)-1H-2-benzopyran-1-one] | 0 | 40 | 117 to 121 | 0 | 10 | – | –
O=C1O[C@H](CCC(F)(F)F)c2c(Oc3ncc(Cl)cn3)cccc21 [Compound 19, (3R)-4-[(5-Chloro-2-pyrimidinyl)oxy]-3-(3,3,3-trifluoropropyl)-1(3H)-isobenzofuranone] | 100 | 100 | 94 to 99 | 60 | 90 | – | –
O=C1O[C@@H](CCC(F)(F)F)c2c(Oc3ncc(Cl)cn3)cccc21 [Compound 18, (3S)-4-[(5-Chloro-2-pyrimidinyl)oxy]-3-(3,3,3-trifluoropropyl)-1(3H)-isobenzofuranone] | 0 | 0 | 99 to 101 | 0 | 0 | – | –
O=C1OC(CCC(F)(F)F)c2c(Oc3ncc(Cl)cn3)cccc21 (stereo not shown) [Compound 4, 4-[(5-Chloro-2-pyrimidinyl)oxy]-3-(3,3,3-trifluoropropyl)-1(3H)-isobenzofuranone] | – | – | – | – | – | 100 | 100
O=C1COC(CCCC(F)(F)F)c2c(Oc3ncc(Cl)cn3)cccc21 (stereo not shown) [Compound 5, 8-[(5-Chloro-2-pyrimidinyl)oxy]-1-(4,4,4-trifluorobutyl)-1H-2-benzopyran-4(3H)-one] | – | – | – | – | – | 0 | 0
O=C1Cc2cccc(Oc3ncc(Cl)cn3)c2C(CCCC(F)(F)F)O1 (stereo not shown) [Compound 17, 8-[(5-Chloro-2-pyrimidinyl)oxy]-1,4-dihydro-1-(4,4,4-trifluorobutyl)-3H-2-benzopyran-3-one] | 10 | 70 | 125 to 129 | 20 | 40 | – | –
O=C1OC(CCCCC(F)(F)F)Cc2c(Oc3ncc(Cl)cn3)cccc21 (stereo not shown) [Compound 31, 5-[(5-Chloro-2-pyrimidinyl)oxy]-3,4-dihydro-3-(5,5,5-trifluoropentyl)-1H-2-benzopyran-1-one] | 0 | 0 | 93 to 97 | 0 | 0 | – | –
CCCC1OC(=O)Cc2cccc(Oc3ncc(Cl)cn3)c21 (stereo not shown) [Compound 35, 8-[(5-Chloro-2-pyrimidinyl)oxy]-1,4-dihydro-1-propyl-3H-2-benzopyran-3-one] | – | – | 136 to 140 | – | – | 0 | 10
